Measurements published in patent US20250361230A1, “LATS Inhibitors and Uses Thereof” (The USA, as Represented by the Secretary, Dept. of Heath …, priority 2022, published 2025).

Legend:
Assay type in all cases: biochemical
LATS2 = target: T1, LATS2 (Homo sapiens, UniProt Q9NRM7); assay: RBC HotSpot kinase assay (33P-ATP, P81 filter-binding), LATS2; details: Table 28, biochemical kinase assay; read-out: LATS2 IC50
T1 sequence (Q9NRM7 1-1088): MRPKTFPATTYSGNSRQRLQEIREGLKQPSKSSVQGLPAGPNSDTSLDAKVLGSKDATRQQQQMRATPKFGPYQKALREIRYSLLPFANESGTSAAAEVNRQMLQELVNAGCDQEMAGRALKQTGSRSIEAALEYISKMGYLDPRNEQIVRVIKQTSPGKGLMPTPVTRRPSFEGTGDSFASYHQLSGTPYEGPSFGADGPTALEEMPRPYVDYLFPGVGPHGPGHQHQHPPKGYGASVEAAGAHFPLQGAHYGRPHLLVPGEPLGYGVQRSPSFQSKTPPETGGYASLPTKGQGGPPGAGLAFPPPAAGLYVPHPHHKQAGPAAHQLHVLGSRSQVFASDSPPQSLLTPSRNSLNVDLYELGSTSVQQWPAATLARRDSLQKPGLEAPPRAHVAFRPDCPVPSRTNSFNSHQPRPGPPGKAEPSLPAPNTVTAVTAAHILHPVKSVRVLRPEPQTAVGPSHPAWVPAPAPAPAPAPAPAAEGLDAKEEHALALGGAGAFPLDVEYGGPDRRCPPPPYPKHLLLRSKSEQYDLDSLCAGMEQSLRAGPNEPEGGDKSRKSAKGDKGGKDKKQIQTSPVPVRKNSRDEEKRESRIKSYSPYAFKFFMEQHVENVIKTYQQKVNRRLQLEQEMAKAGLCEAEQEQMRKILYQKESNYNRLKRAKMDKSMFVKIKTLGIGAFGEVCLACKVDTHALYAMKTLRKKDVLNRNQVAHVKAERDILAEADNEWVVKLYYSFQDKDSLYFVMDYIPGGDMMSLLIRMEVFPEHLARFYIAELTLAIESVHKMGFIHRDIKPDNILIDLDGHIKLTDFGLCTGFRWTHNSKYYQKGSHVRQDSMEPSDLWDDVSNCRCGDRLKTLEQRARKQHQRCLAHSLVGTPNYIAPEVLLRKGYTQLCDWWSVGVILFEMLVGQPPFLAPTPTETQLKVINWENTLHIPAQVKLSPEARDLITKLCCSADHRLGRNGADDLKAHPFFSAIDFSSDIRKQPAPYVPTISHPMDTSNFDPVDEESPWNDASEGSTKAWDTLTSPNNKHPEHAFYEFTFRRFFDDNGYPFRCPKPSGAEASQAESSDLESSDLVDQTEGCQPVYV
How it was run: (§1)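 Radiometric 33P-ATP kinase reaction in 20 mM Hepes pH 7.5, 10 mM MgCl2, 1 mM EGTA, 0.01% Brij35, 0.02 mg/ml BSA, 0.1 mM Na3VO4, 2 mM DTT, 1% DMSO. Compound preincubated with kinase and substrate 20 min, then 2 h at room temperature; P81 filter-binding read-out. IC50 (nM) from 10-point singlet curves.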

LATS1 = target: T2, LATS1 (Homo sapiens, UniProt O95835); assay: RBC HotSpot kinase assay (33P-ATP, P81 filter-binding), LATS1; details: Table 28, biochemical kinase assay; read-out: LATS1 IC50
T2 sequence (O95835 1-1130): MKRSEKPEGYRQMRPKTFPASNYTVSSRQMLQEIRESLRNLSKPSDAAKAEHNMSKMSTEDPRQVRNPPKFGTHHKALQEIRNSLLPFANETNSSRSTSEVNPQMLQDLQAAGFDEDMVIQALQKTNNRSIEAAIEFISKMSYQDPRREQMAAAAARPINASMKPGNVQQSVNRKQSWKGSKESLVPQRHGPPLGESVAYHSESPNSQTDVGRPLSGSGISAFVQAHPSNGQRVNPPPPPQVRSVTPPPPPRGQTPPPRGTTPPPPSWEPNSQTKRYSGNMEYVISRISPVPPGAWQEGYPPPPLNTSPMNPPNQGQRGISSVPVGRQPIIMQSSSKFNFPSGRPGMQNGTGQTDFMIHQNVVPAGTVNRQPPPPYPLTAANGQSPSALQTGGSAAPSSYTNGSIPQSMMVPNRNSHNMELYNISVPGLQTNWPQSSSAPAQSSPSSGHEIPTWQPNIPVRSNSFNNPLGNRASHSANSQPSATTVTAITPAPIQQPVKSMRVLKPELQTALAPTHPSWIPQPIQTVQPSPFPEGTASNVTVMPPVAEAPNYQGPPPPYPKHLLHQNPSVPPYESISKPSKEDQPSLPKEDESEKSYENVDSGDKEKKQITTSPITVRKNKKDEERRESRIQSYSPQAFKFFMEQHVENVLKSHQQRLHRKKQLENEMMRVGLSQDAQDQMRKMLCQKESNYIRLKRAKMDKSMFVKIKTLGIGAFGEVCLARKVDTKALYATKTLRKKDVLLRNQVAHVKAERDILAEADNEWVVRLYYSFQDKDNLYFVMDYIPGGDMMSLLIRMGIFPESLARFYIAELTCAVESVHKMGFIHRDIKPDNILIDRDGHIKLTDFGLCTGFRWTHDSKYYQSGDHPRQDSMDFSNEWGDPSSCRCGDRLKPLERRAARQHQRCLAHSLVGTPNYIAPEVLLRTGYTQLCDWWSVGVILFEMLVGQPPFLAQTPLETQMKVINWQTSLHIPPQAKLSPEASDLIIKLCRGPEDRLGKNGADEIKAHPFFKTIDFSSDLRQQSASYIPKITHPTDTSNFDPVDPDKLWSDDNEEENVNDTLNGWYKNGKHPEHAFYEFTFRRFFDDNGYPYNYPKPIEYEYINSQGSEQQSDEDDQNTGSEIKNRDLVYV
How it was run: as §1

AKT = AKT (Homo sapiens, UniProt P31749); assay: RBC HotSpot kinase assay (33P-ATP, P81 filter-binding), AKT; details: Table 28, biochemical kinase assay; read-out: AKT IC50
Sequence of AKT (P31749 whole entry): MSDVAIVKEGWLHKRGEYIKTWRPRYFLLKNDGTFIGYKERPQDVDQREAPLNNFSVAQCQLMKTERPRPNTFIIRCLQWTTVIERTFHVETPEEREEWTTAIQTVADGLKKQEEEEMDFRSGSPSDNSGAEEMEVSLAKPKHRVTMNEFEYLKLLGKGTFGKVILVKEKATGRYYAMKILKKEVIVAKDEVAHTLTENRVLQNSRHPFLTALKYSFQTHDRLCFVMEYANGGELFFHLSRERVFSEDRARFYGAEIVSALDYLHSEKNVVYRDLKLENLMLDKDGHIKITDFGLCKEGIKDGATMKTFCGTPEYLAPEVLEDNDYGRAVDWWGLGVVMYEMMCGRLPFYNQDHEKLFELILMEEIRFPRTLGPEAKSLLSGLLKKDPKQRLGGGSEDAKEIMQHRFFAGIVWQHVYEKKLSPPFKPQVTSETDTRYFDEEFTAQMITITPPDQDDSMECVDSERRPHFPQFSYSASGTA
How it was run: as §1

Row | SMILES | IC50 (LATS2) [nM] | IC50 (LATS1) [nM] | IC50 (AKT) [nM]
1 | c1cc(-c2ccc3c(c2)CNC3)c2cc[nH]c2n1 [Compound 265, 4-(isoindolin-5-yl)-1H-pyrrolo[2,3-b]pyridine] | 13 | 14 | 517
2 | COc1cc(-c2ccnc3[nH]ccc23)ccc1CN [Compound 268, (2-methoxy-4-(1H-pyrrolo[2,3-b]pyridin-4-yl)phenyl) methanamine] | 24 | 24 | 618
3 | CCOc1cc(-c2ccnc3[nH]ccc23)ccc1CN [Compound 269, (2-ethoxy-4-(1H-pyrrolo[2,3-b]pyridin-4-yl)phenyl) methanamine] | 36 | 40 | 789
4 | NCc1ccc(-c2ccnc3[nH]ccc23)cc1F [Compound 270, (2-fluoro-4-(1H-pyrrolo[2,3-b]pyridin-4-yl)phenyl) methanamine] | 34 | 28 | 874
5 | NCc1ccc(-c2c(Cl)cnc3[nH]ccc23)cc1 [Compound 272, (4-(5-chloro-1H-pyrrolo[2,3-b]pyridin-4-yl)phenyl) methanamine] | 268 | 447 | 3100
6 | NCc1ccc(-c2c(F)cnc3[nH]ccc23)cc1 [Compound 273, (4-(5-fluoro-1H-pyrrolo[2,3-b]pyridin-4-yl)phenyl) methanamine] | 148 | 90 | 1390
7 | c1ccc(CNCc2ccc(-c3ccnc4[nH]ccc34)cc2)cc1 [Compound 274, N-(4-(1H-pyrrolo[2,3-b]pyridin-4-yl)benzyl)-1-phenylmethanamine] | 60.5 | 36.6 | 2430
8 | c1cc(-c2ccc(CN3CCCC3)cc2)c2cc[nH]c2n1 [Compound 277, 4-(4-(pyrrolidin-1-ylmethyl)phenyl)-1H-pyrrolo[2,3-b]pyridine] | 100 | 63 | 2200
9 | c1cc(-c2ccc(C3CCCN3)cc2)c2cc[nH]c2n1 (stereo not drawn) [Compound 278, 4-(4-(pyrrolidin-2-yl)phenyl)-1H-pyrrolo[2,3-b]pyridine] | 33 | 17 | 321
10 | Fc1ccc(CNCc2ccc(-c3ccnc4[nH]ccc34)cc2)cc1 [Compound 279, N-(4-(1H-pyrrolo[2,3-b]pyridin-4-yl)benzyl)-1-(4-fluorophenyl) methanamine] | 29.3 | 9.8 | 1080
11 | Fc1cccc(CNCc2ccc(-c3ccnc4[nH]ccc34)cc2)c1 [Compound 280, N-(4-(1H-pyrrolo[2,3-b]pyridin-4-yl)benzyl)-1-(3-fluorophenyl) methanamine] | 25.6 | 10.8 | 859
12 | CC(C)(O)C#Cc1cc(-c2ccnc3[nH]ccc23)ccc1CNCc1ccc(F)cc1 [Compound 281, 4-(2-(((4-fluorobenzyl)amino)methyl)-5-(1H-pyrrolo[2,3-b]pyridin-4-yl)phenyl)-2-methylbut-3-yn-2-ol] | 170 | 82.4 | 4620
13 | Fc1ccc(CNCc2ccc(-c3ccnc4[nH]ccc34)cc2Cl)cc1 [Compound 282, N-(2-chloro-4-(1H-pyrrolo[2,3-b]pyridin-4-yl)benzyl)-1-(4-fluorophenyl) methanamine] | 59.2 | 31.4 | 3800
14 | NCc1ccc(-c2ccnc3[nH]ccc23)cc1Cl [Compound 283, (2-chloro-4-(1H-pyrrolo[2,3-b]pyridin-4-yl)phenyl) methanamine] | 20 | 8 | 732
15 | FC(F)(F)Oc1cccc(CNCc2ccc(-c3ccnc4[nH]ccc34)cc2)c1 [Compound 285, N-(4-(1H-pyrrolo[2,3-b]pyridin-4-yl)benzyl)-1-(3-(trifluoromethoxy)phenyl) methanamine] | 191 | 167 | 1990
16 | NCc1ccc(-c2ccnc3[nH]ccc23)c(C(F)(F)F)c1 [Compound 286, (4-(1H-pyrrolo[2,3-b]pyridin-4-yl)-3-(trifluoromethyl)phenyl) methanamine] | 1260 | 5050 | 3410
17 | COC(=O)c1c[nH]c2nccc(-c3ccc([C@@]4(O)[C@H](C)CNC[C@@H]4C)c(C)c3)c12 [Compound 300, methyl 4-(4-((3S,4s,5R)-4-hydroxy-3,5-dimethylpiperidin-4-yl)-3-methylphenyl)-1H-pyrrolo[2,3-b]pyridine-3-carboxylate] | 1.6 | 3.2 | 282
18 | CCc1cc(-c2ccnc3[nH]cc(F)c23)ccc1[C@@]1(O)[C@H](C)CNC[C@@H]1C [Compound 302, (3S,4s,5R)-4-(2-ethyl-4-(3-fluoro-1H-pyrrolo[2,3-b]pyridin-4-yl)phenyl)-3,5-dimethylpiperidin-4-ol] | 4.9 | 8.7 | 39.5
19 | Cc1cc(-c2ccnc3[nH]cc(Cl)c23)cc(F)c1[C@@]1(O)[C@H](C)CNC[C@@H]1C [Compound 303, (3S,4s,5R)-4-(4-(3-chloro-1H-pyrrolo[2,3-b]pyridin-4-yl)-2-fluoro-6-methylphenyl)-3,5-dimethylpiperidin-4-ol] | 3.3 | 4.8 | 246
20 | CCc1cc(-c2ccnc3[nH]cc(F)c23)ccc1[C@@]1(O)[C@H](C)CN(C2CCS(=O)(=O)CC2)C[C@@H]1C [Compound 306, 4-((3S,4s,5R)-4-(2-ethyl-4-(3-fluoro-1H-pyrrolo[2,3-b]pyridin-4-yl)phenyl)-4-hydroxy-3,5-dimethylpiperidin-1-yl)tetrahydro-2H-thiopyran 1,1-dioxide] | 5.4 | 11.6 | 31.2
21 | Cc1cc(-c2ccnc3[nH]cc(Cl)c23)cc(F)c1[C@@]1(O)[C@H](C)CN(C2CCS(=O)(=O)CC2)C[C@@H]1C [Compound 307, 4-((3S,4s,5R)-4-(4-(3-chloro-1H-pyrrolo[2,3-b]pyridin-4-yl)-2-fluoro-6-methylphenyl)-4-hydroxy-3,5-dimethylpiperidin-1-yl)tetrahydro-2H-thiopyran 1,1-dioxide] | 3.1 | 4.2 | 206
